These results are taken from ChEMBL document CHEMBL1133061, “Synthesis of N-diisopropyl phosphoryl benzyltetrahydroisoquinoline, a new class of mitochondrial complexes I and III inhibitors” (Bioorg Med Chem Lett, 2000).

For orientation: IC50 means the midpoint of a concentration-inhibition curve. Lower therefore signals greater potency.

Mitochondrial complex I; NADH oxidoreductase, sequence (P25708 21-464 limits assumed, other chains not shown): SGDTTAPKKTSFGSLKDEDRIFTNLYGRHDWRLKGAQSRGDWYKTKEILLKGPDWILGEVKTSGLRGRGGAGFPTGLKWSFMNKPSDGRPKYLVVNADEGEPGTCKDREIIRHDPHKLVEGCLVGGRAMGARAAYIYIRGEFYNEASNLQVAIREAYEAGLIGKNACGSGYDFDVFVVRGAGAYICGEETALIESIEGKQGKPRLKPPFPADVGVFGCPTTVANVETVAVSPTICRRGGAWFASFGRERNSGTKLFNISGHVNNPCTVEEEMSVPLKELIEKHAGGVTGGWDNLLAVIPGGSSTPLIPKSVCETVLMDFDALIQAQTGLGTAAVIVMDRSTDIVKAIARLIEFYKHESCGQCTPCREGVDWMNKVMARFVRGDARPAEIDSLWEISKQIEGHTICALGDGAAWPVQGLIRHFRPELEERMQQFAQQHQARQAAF

This assay concerns the target Mitochondrial complex I; NADH oxidoreductase (Bos taurus, UniProt P25708+P52505). Put plainly: Inhibitory concentration against NADH oxidase. The assay is classed as protein-complex assay.
Turning to `COc1cc2c(cc1OCc1ccccc1)CCN(C)C2Cc1ccccc1` (centres undefined), the IC50 was determined as 2.7 µM.
Take `COc1cc2c(cc1OCc1ccccc1)CCN(P(=O)(OC(C)C)OC(C)C)C2Cc1ccccc1` (centres undefined): the IC50 turned out to be 1.69 µM.
`COc1cc2c(cc1OCc1ccccc1)CCN=C2Cc1ccccc1` registered an IC50 of 2.91 µM. Compared with the last compound, the IC50 is about 1.7-fold higher.
With `COc1cc2c(cc1OCc1ccccc1)CCNC2Cc1ccccc1` (centres undefined), half-maximal inhibition (IC50) required 3.88 µM.
